We go through one compound from patent publication US20240058308A1, “TREATMENT AND PREVENTION OF DRY MACULAR DEGENERATION” (The Regents of the University of Michigan, priority 2021, published 2024).

For the assay, the system named is primary hfRPE culture. The assay is described as follows: Trans-epithelial electrical resistance (TEER), tight-junction integrity. The settings on record: TEER measured after 20 FLBZ feedings, after UAM accumulation. Type of assay: cell-based. The procedure:
TEER and cell death were measured [Ref 51; incorporated by reference in its entirety]. For cell death assays, maximum possible LDH release per Transwell was measured immediately after 2 μL of the final experimental supernate was taken. The Transwell and supernate was then treated with 0.2% Triton X-100 for 15 minutes at 37° C. followed by collection of an additional 2 μL of supernate. Each experimental LDH release value was first normalized to total LDH release from the vehicle condition. Additionally, all TEER and LDH release measurements were normalized to the vehicle group at the zero-hour timepoint.
To evaluate the safety of D4476 and FLBZ, trans-epithelial electrical resistance (TEER) was measured, a measure of tight-junction integrity, in RPE cultures after prolonged exposure to each compound. As well-formed tight-junctions require myriad cell processes to be optimally coordinated, assessing TEER provides an easily measurable, ongoing, and noninvasive marker for general RPE cell health [Ref. 45; incorporated by reference in its entirety]. […] Lactate dehydrogenase (LDH) release, a combined marker of necrotic and late-stage apoptotic cell death [Refs. 47,48; incorporated by reference in their entireties], was reduced compared to vehicle for all four verified RPE autophagy inducers (FIG. 3b). Exposure of RPE cultures to the oxidant tert-butyl hydroperoxide confirmed the ability of the assay to detect cell death (FIG. 10).
Transepithelial Electrical Resistance (TEER) was tested (FIGS. 16 and 17). TEER is a sensitive measure of toxicity (lower the TEER, the more toxic the drug is). Drugs were added daily and measurements made daily for at least 4-8 days.

On to `COC(=O)Nc1nc2cc(C(=O)c3ccc(F)cc3)ccc2[nH]1` [FLBZ, Flubendazole], for which the “Cell health by tight-junction integrity (TEER) in cultures with established UAM” value is given as “improved cell health”.
